Experimental data as given in US20240390451A1, “MODIFIED TRIPEPTIDES FOR USE IN THE TREATMENT OF A NON-ENVELOPED VIRUS INFECTION” (PHARMA HOLDINGS AS, priority 2021, published 2024).
Values joined by “and” are separate entries in the source; they are usually repeats but may differ in a detail not shown here. Equal values may be shown once. Read-outs that look alike come from different tables or passages of the source.

Columns and labels:
[1] = tested on: Human Rhinovirus 14, strain 1059; experiment: Antiviral (virucidal) activity of 1% LTX-109 against Human Rhinovirus 14: 1 hour incubation, filtration, TCID50 on HeLaM cells; format: cell-based; conditions: for TCID50/ml ± SEM: average virus titre recovered, contact time 1 hour at RT, 1% LTX-109 (triplicate) or 2.5% glutaraldehyde in PBS (single replicate); for Log decrease: decrease in infectivity as compared to the PBS control; for Log decrease / % Reduction: contact time 1 hour, 1% LTX-109 or 2.5% glutaraldehyde; for % Reduction: reduction in Rhinovirus 14 infectivity as compared to the PBS control
Protocol: The virus used was from ATCC: Human Rhinovirus 14, strain 1059 (ATCC VR-284, lot number 70049530).
To test whether 1% LTX-109 has virucidal activity against Human Rhinovirus 14, 4×10^7 infectious units of Human Rhinovirus 14 in 40 μl were incubated with four volumes (160 μl) of 1% LTX-109 or a PBS negative control. As a positive control, a buffer containing 2.5% glutaraldehyde in PBS was tested in parallel. Both LTX-109 and negative control were tested in triplicates. The positive control was tested in a single replicate.
(§1) After 1 hour at room temperature (RT), the incubation was stopped by adding an excess of cold assay media (5 ml), and the formulation was physically separated from the virus through a filter (Sartorius VivaSpin 6, 100,000 MWCO, PES) to reduce cytotoxicity on the assay cells. The assay media was DMEM (Gibco 10566016) supplemented with 2% FBS (Gibco 10500064), 20 mM HEPES (Gibco 15630056) and 1× PenStrep (Gibco 15070063).
Concentrated virus was re-suspended in 1 ml of assay media and infectious virus was quantified through a serial dilution (10^−1 to 10^−8) on a monolayer of HeLaM cells plated the day before at 8,000 cells/100 μl/well. […] Specifically, on a 96 well plate, 225 μl of media were placed in each well of 4 columns (32 wells in total). In the 4 wells of the top row (row A), 25 μl of re-suspended virus was added and mixed. With a multichannel pipette, 25 μl of media was then taken from the 4 wells in row A to the next 4 wells in row B, and then from row B to row C, and so on until row H, creating a serial dilution (10^−1 to 10^−8). 200 μl from each well was then added to separate wells containing a monolayer of HeLa M cells. Appropriate controls were also performed.

HeLa cells [2] = conditions: dilution at which cytotoxicity on HeLa cells was observed, without virus, after filtration, 1% LTX-109 (w/v) in PBS or 0.25% SDS
Protocol: Infectious virus was quantified through a serial dilution of the filtrate (a series of ten-fold dilutions) on monolayers of HeLa cells in microtitre plates (HeLa cells are human cells capable of displaying a cytopathic effect (CPE) upon viral infection). For each dilution of the virus in the dilution series, eight wells of the microtitre plate were tested (i.e. each dilution was applied to eight separate wells, each well containing a HeLa cell monolayer). Appropriate controls were also performed. […] The TCID50 (TCID50/ml) assay (Tissue Culture Infectious Dose 50 assay) is a type of endpoint dilution assay that is well known in the art and routinely used to quantitatively measure virus titres. TCID50/ml provides a measure of infectious units of virus/ml. “/ml” refers to /ml of the starting solution (i.e. neat/undiluted solution) mentioned above. A parallel test where the same procedure was carried out in the absence of virus was included to determine any residual cytotoxic effect of the formulation on the assay cells.

Rhinovirus 60, 2268-CV37 [3] = experiment: Antiviral activity of 1% LTX-109 against Rhinovirus: 1 hour incubation, filtration, TCID50 endpoint dilution on HeLa cells; format: cell-based, Human Rhinovirus 60; conditions: for TCID50/ml ± SEM: average virus titre recovered after 1 hour incubation, 1% LTX-109 (w/v) in PBS or 0.25% SDS, triplicate; for Log decrease: decrease in infectivity as compared to the PBS control; for Log decrease / Percentage: 1 hour; for Log decrease / Log / Percentage: 1% LTX-109 or 0.25% SDS; for Log: log of recovered virus titre after 1 hour incubation; for Percentage: reduction in infectivity as compared to the PBS control
Protocol: (§2) The Rhinovirus used was from BEI Resources: Rhinovirus 60, 2268-CV37 (Catalogue No. NR-51447).
(§3) To test whether 1% LTX-109 (w/v) has antiviral activity against Rhinovirus, 2.24×10^5 infectious units of Rhinovirus (40 μl) were incubated with four volumes of 1% LTX-109 dissolved in PBS (160 μl), alongside a PBS (Phosphate-buffered saline) control and a 0.25% SDS (Sodium dodecyl sulphate) positive control. The treatments were performed in triplicate.
After 1 hour, the incubation was stopped by adding an excess of media, and the liquid was filtered through a filter (Sartorius VivaSpin 6) to separate the virus in order to reduce cytotoxicity on the assay cells. The assay media was DMEM (Gibco 61965-026) supplemented with 2% FBS (Gibco 10500-064), 20 mM Hepes (Gibco 15630-056) and 1×p/s (Gibco 15070063).
(§4) Appropriate controls were also performed.

HeLa cells [4] = conditions: dilution at which cytotoxicity on HeLa cells was observed, without virus, after dilution, 3% LTX-109 (w/v) in PBS or 0.25% SDS
Protocol: A parallel test where the same procedure was carried out in the absence of virus was included to determine any residual cytotoxic effect of the formulation on the assay cells.

HeLaM cells [5] = experiment: Parallel test without virus: residual cytotoxic effect of LTX-109 on the assay cells (Example 4); conditions: dilution at which cytotoxicity on HeLaM cells was observed, after filtration and re-suspension, 1% LTX-109 or 2.5% glutaraldehyde in PBS
Protocol: A parallel test where the same procedure was carried out in the absence of virus was included to determine any residual cytotoxic effect of LTX-109 on the assay cells.

Rhinovirus 60, 2268-CV37 [6] = experiment: Antiviral activity of 3% LTX-109 against Rhinovirus: 1 hour incubation, dilution in media, TCID50 endpoint dilution on HeLa cells; format: cell-based, Human Rhinovirus 60; conditions: for Log decrease: decrease in infectivity as compared to the PBS control; for Log decrease / Percentage: 1 hour; for Log decrease / Log / Percentage: 3% LTX-109 or 0.25% SDS; for Log: log of recovered virus titre after 1 hour incubation; for Percentage: reduction in infectivity as compared to the PBS control
Protocol: as §2
as §3, with “3%” for “1%”, “9×10^5” for “2.24×10^5”
After 1 hour, the incubation was stopped by adding 50 μl of mixture to 5 ml of media. The assay media was DMEM (Gibco 61965-026) supplemented with 2% FBS (Gibco 10500-064), 20 mM Hepes (Gibco 15630-056) and 1× p/s (Gibco 15070063).
as §4

[7] = tested on: Rhinovirus (HRV-A60), Strain: 2268-CV37; experiment: Antiviral activity of LTX-7 against Rhinovirus: 1 hour incubation, filtration, TCID50 endpoint dilution on HeLaM cells; format: cell-based, Human Rhinovirus 60; conditions: for % Reduction: as compared to the PBS control; for % Reduction / Log decrease / Rounded %: contact time 1 hour, 1% LTX-7 or 0.25% SDS; for TCID50/ml ± SEM: average virus titre recovered, contact time 1 hour at RT, 1% LTX-7 (w/v) in PBS or 0.25% SDS in PBS; for Log decrease: decrease in infectivity as compared to the PBS control; for Rounded %: rounded % reduction as compared to the PBS control
Protocol: The Rhinovirus used was from BEI Resources: Rhinovirus (HRV-A60), Strain: 2268-CV37 (BEI Resources Catalogue Number NR-51447).
To test whether LTX-7 has antiviral activity against Rhinovirus, 5×10^5 infectious units of Rhinovirus (40 μl) were incubated with four volumes of 1% LTX-7 (w/v) dissolved in PBS (160 μl) or a PBS (Phosphate-buffered saline) negative control. As a positive control, a buffer containing 0.25% SDS (Sodium dodecyl sulphate) in PBS was tested in parallel. Each sample and the PBS control were tested in triplicates.
as §1, with “PES (Sartorius, VS0642))” for “PES)”, “61965-026)” for “10566016)”, “10500-064),” for “10500064),”, “Hepes” for “HEPES”, “15630-056)” for “15630056)”, “p/s” for “PenStrep”
The starting solution for the serial dilution (i.e. the neat (or undiluted) solution or 10^0 solution) was obtained by re-suspending the virus that was separated via the filtration step in 1 ml of assay media. […] Appropriate controls were also performed.

HeLaM cells [8] = conditions: dilution at which cytotoxicity on HeLaM cells was observed, without virus, after filtration, 1% LTX-7 (w/v) in PBS or 0.25% SDS
Protocol: A parallel test where the same procedure was carried out in the absence of virus was included to determine any residual cytotoxic effect of LTX-7 on the assay cells.

[9] = listed as POSITIVE CONTROL (SDS), sulphate

Compound | TCID50/ml ± SEM [1] | Log decrease [1] | % Reduction [1] | Cytotoxicity (HeLa cells [2]) | TCID50/ml ± SEM (Rhinovirus 60, 2268-CV37 [3]) | Log decrease (Rhinovirus 60, 2268-CV37 [3]) | Log (Rhinovirus 60, 2268-CV37 [3]) | Percentage (Rhinovirus 60, 2268-CV37 [3]) | Cytotoxicity (HeLa cells [4]) | Cytotoxicity (HeLaM cells [5]) | Log decrease (Rhinovirus 60, 2268-CV37 [6]) | Log (Rhinovirus 60, 2268-CV37 [6]) | Percentage (Rhinovirus 60, 2268-CV37 [6]) | % Reduction [7] | Log decrease [7] | also measured
CC(C)(C)c1cc(C(C)(C)C)c2[nH]c(C(C)(C)C)c(CC(NC(=O)C(N)CCCNC(=N)N)C(=O)NC(CCCNC(=N)N)C(=O)NCCc3ccccc3)c2c1 (stereo not drawn) [LTX-109] | 1.80E+06 TCID50/ml | 1.05 logs | 91.2% | only cytotoxic before any serial dilutions are performed | 4.8E+03 TCID50/ml and 4.80E+03 ± 8.21E+02 TCID50/ml | 1.9 logs | 3.7 | 98.89% | only cytotoxic before any serial dilutions are performed | 10^−1 | 1.9 logs | 2.3 | 98.87% |  |  | TCID50/ml ± SEM ([1]; listed as 1% LTX-109): 1.80E+06 (±3.08 ± 05) TCID50/ml; % Reduction ([1]; listed as 1% LTX-109): 91.2% and 91.17%; Cytotoxicity (HeLa cells [2]; listed as 1% LTX-109): observed (only) with the neat application and Neat; Cytotoxicity (HeLa cells [4]; listed as 3% LTX-109): Neat; Cytotoxicity (HeLa cells [4]; listed as 3% formulation): observed (only) with the neat application
CCCCCCCCCCCCOS(=O)(=O)[O-].[Na+] [SDS, Sodium dodecyl sulphate, reference compound] |  |  |  | Neat | 1.00E+02 TCID50/ml | 3.6 logs | 2.0 | 99.98% | Neat |  | 3.0 logs | 1.2 | 99.91% | 99.983% | 3.67 logs | TCID50/ml ± SEM [7, 9]: 1.58E+01 (SEM ND) TCID50/ml; TCID50/ml ± SEM ([7]; sulphate): 1.58E+01 TCID50/ml; Rounded % [7, 9]: 99.9%; Rounded % ([7]; sulphate): ~99.9%; Cytotoxicity (HeLaM cells [8]; [9]): Neat; Cytotoxicity (HeLaM cells [8]; sulphate): observed (only) with the neat application; TCID50/ml ± SEM (Rhinovirus 60, 2268-CV37 [6]; average virus titre recovered after 1 hour incubation, 3% LTX-109 (w/v) in PBS or 0.25% SDS, triplicate): 1.58E+01 TCID50/ml
N=C(N)NCCCC(N)C(=O)NC(Cc1ccc(-c2ccc3ccccc3c2)cc1)C(=O)NC(CCCNC(=N)N)C(=O)NCCc1ccccc1 (stereo not drawn) [LTX-7, Arg-Phe(4-(2-Naphthyl))-Arg-NH—CH2—CH2-Ph] |  |  |  |  |  |  |  |  |  |  |  |  |  | 95.791% | 1.33 logs | TCID50/ml ± SEM [7]: 3.86E+03 TCID50/ml and 3.86E+03 ± 1.14E+03 TCID50/ml; Cytotoxicity (HeLaM cells [8]): observed (only) with the neat application and only cytotoxic before any serial dilutions are performed and Neat
O=CCCCC=O [Positive Control, glutaraldehyde, reference compound] | 3.75E+01 TCID50/ml | 5.74 logs | 99.9998% |  |  |  |  |  |  | Neat |  |  |  |  |  | % Reduction ([1]; listed as 2.5% glutaraldehyde in PBS): ~99.9%
